≈ marks a conversion by molar mass, not a printed value.
Assays:
Format in all cases: cell-based
[1] = system: Prevotella nigrescens (JCM6322); test: Growth inhibition activity (MIC, agar) against anaerobic bacteria; settings: Prevotella nigrescens, JCM6322, 72 h, strain JCM6322; Trypticase Soy Broth agar, 37 degrees C. for 3 days; read-out: MIC (Minimum Inhibitory Concentration)
Protocol: (§1) In the present invention, the growth inhibition activity, which is an indicator of the antimicrobial activity, is evaluated by determining the Minimum Inhibitory Concentration (MIC) with an agar or liquid medium.
(§2) In the test for growth inhibition activity, the following strains were used: • Acne bacteria: Propionibacterium acnes (JCM6473) and (ATCC6919) • Abscess bacteria: Bacteroides fragilis (GAI5560) • Cavity-causing bacteria: Streptococcus mutans (JCM5175), Actinomyces naeslundii (JCM8350) and Actinomyces viscosus (JCM8352) • Periodontal pathogen: Fusobacterium nucleatum (JCM6328), Porphyromonas gingivalis (JCM8525), Prevotella nigrescens (JCM6322)
(§3) The test strains were cultured in a GAM medium (Nissui Pharmaceutical Co., LTD), a Schaedler Broth (BBL) or a Trypticase Soy Broth (BBL) liquid medium, and then the grown bacteria were diluted in saline to prepare turbidity 0.5 McFarland of the bacteria fluids for inoculation. The bacteria were cultured at 37 degrees C. for 3 days under an anaerobic condition by using AnaeroPack® from MGC.
(§4) Furthermore, in order to examine the growth inhibition activities against the bacteria by the above cooling agent, the concentration of the cooling agents: (3S)-CA20, (3R)-CA20, CA1, CA5, CA15, CA55 or CA MGH was diluted with ethanol to the required level of concentrations for the determining the Minimum Inhibitory Concentration to produce the sample liquids.
(§5) Next, 100 μL of each sample liquid was added to 10 mL of a Trypticase Soy Broth agar medium solution in a soluble state, and each agar medium solution was poured into a petri dish and solidified, to prepare the test plates. Subsequently, 5 μL of above the bacteria fluids for inoculation were stamped on the test plates, and then the test plates were cultured at 37 degrees C. for 3 days.
(§6) The minimum concentration of the cooling agent in which the growth of bacteria could not be confirmed was considered as the MIC (Minimum Inhibitory Concentration).
as §6

[2] = system: Propionibacterium acnes (JCM6473); test: as above; settings: Cutibacterium acnes, 72 h; strain JCM6473; Trypticase Soy Broth agar, 37 degrees C. for 3 days; read-out: MIC (Minimum Inhibitory Concentration)
Protocol: as §1, §2, §3, §4, §5, §6, §6

[3] = system: Bacteroides fragilis (GAI5560); test: as above; settings: Bacteroides fragilis, 72 h; strain GAI5560; Trypticase Soy Broth agar, 37 degrees C. for 3 days; read-out: MIC (Minimum Inhibitory Concentration)
Protocol: as §1, §2, §3, §4, §5, §6, §6

[4] = system: Actinomyces naeslundii (JCM8350); test: as above; settings: Actinomyces naeslundii, JCM8350, 72 h, strain JCM8350; Trypticase Soy Broth agar, 37 degrees C. for 3 days; read-out: MIC (Minimum Inhibitory Concentration)
Protocol: as §1, §2, §3, §4, §5, §6, §6

[5] = system: Actinomyces viscosus (JCM8352); test: as above; settings: Actinomyces viscosus, 72 h; strain JCM8352; Trypticase Soy Broth agar, 37 degrees C. for 3 days; read-out: MIC (Minimum Inhibitory Concentration)
Protocol: as §1, §2, §3, §4, §5, §6, §6

[6] = system: Streptococcus mutans (JCM5175); test: as above; settings: Streptococcus mutans, 72 h; strain JCM5175; Trypticase Soy Broth agar, 37 degrees C. for 3 days; read-out: MIC (Minimum Inhibitory Concentration)
Protocol: as §1, §2, §3, §4, §5, §6, §6

[7] = system: Propionibacterium acnes (ATCC6919); test: as above; settings: Cutibacterium acnes, ATCC6919, 72 h, strain ATCC6919; Trypticase Soy Broth agar, 37 degrees C. for 3 days; read-out: MIC (Minimum Inhibitory Concentration)
Protocol: as §1, §2, §3, §4, §5, §6, §6

[8] = system: Fusobacterium nucleatum (JCM6328); test: as above; settings: 72 h, strain JCM6328, Trypticase Soy Broth agar, 37 degrees C. for 3 days, read-out: MIC (Minimum Inhibitory Concentration)
Protocol: as §1, §2, §3, §4, §5, §6, §6

[9] = system: Porphyromonas gingivalis (JCM8525); test: as above; settings: Porphyromonas gingivalis, JCM8525, 72 h, strain JCM8525; Trypticase Soy Broth agar, 37 degrees C. for 3 days; read-out: MIC (Minimum Inhibitory Concentration)
Protocol: as §1, §2, §3, §4, §5, §6, §6

target microbe species = test: Growth inhibition activity compared with 3-menthoxypropane-1,2-diol; settings: depending on kinds of target microbe species
Text: Although the all present cooling agents can have growth inhibition activities against both aerobic and anaerobic microorganisms (e.g. bacteria and fungi, etc.), menthyl 3-hydroxybutanoate and 3-menthoxypropan-1-ol have specifically high growth inhibition activities and potent growth inhibition activities against both aerobic and anaerobic microorganisms. Examples of microorganisms include Corynebacterium, Actinomyces and so on. Menthyl 3-hydroxybutanoate and 3-menthoxypropan-1-ol have 2 to 8 times as much growth inhibition activity as 3-menthoxypropane-1,2-diol (which is known as an antimicrobial agent), and can have more than or equal to 8 times as much growth inhibition activity as 3-menthoxypropane-1,2-diol, depending on kinds of target microbe species.
Furthermore, when compared 2-methyl-3-(menthoxy)propane-1,2-diol with 3-menthoxypropane-1,2-diol (which is known as an antimicrobial agent), the former has about 2 times as much growth inhibition activity as the latter, depending on kinds of target microbe species. […]
as §1

MIC [1] [µg/mL] | MIC [2] [µg/mL] | MIC [3] [µg/mL] | MIC [4] [µg/mL] | MIC [5] [µg/mL] | MIC [6] [µg/mL] | MIC [7] [µg/mL] | MIC [8] [µg/mL] | MIC [9] [µg/mL] | SMILES | growth inhibition activity as multiple of 3-menthoxypropane-1,2-diol (target microbe species)
1600 (≈ 10200 µM) | 1600 (≈ 10200 µM) | 1600 (≈ 10200 µM) | 1600 (≈ 10200 µM) | 1600 (≈ 10200 µM) | > 1600 | 1600 (≈ 10200 µM) | 1600 (≈ 10200 µM) |  | CC1CCC(C(C)C)C(O)C1 (stereo not drawn) [l-menthol, menthol, reference compound] | 
 | 200 (≈ 942 µM) | 50 (≈ 236 µM) | 200 (≈ 942 µM) | 200 (≈ 942 µM) | 100 (≈ 471 µM) | 100 (≈ 471 µM) | 100 (≈ 471 µM) | 50 (≈ 236 µM) | CC1CCC(C(C)C)C(OC(=O)C=O)C1 (stereo not shown) [CA MGH, menthyl glyoxylate] | 
100 (≈ 413 µM) | 200 (≈ 825 µM) | 100 (≈ 413 µM) | 100 (≈ 413 µM) | 100 (≈ 413 µM) | 200 (≈ 825 µM) | 200 (≈ 825 µM) |  | < 50 | CC(O)CC(=O)OC1CC(C)CCC1C(C)C [(3S)-CA20, menthyl 3-hydroxybutanoate] | 
> 1600 | > 1600 | > 1600 | > 1600 | > 1600 | > 1600 | > 1600 |  | > 1600 | CNC(=O)C(C)(C(C)C)C(C)C [WS-23, N-methyl-2-isopropyl-2,3-dimethylbutanamide, reference compound] | 
100 (≈ 409 µM) | 800 (≈ 3270 µM) | 100 (≈ 409 µM) | 800 (≈ 3270 µM) | 800 (≈ 3270 µM) | 800 (≈ 3270 µM) | 800 (≈ 3270 µM) | 800 (≈ 3270 µM) |  | CC1CCC(C(C)C)C(OCCOCCO)C1 (stereo not shown) [CA55, 2-(2-menthoxyethoxy)ethanol] | 
200 (≈ 868 µM) | 800 (≈ 3470 µM) | 100 (≈ 434 µM) | 800 (≈ 3470 µM) | < 50 | 800 (≈ 3470 µM) | 800 (≈ 3470 µM) | 800 (≈ 3470 µM) |  | CC1CCC(C(C)C)C(OCC(O)CO)C1 (stereo not shown) [CA10, 3-menthoxypropane-1,2-diol, reference compound] | 
200 (≈ 998 µM) | 400 (≈ 2000 µM) | 200 (≈ 998 µM) | 800 (≈ 3990 µM) | 200 (≈ 998 µM) | 800 (≈ 3990 µM) | 400 (≈ 2000 µM) | 400 (≈ 2000 µM) |  | CC1CCC(C(C)C)C(OCCO)C1 (stereo not shown) [CA5, 2-(menthoxy)ethanol] | 
100 (≈ 467 µM) | 200 (≈ 933 µM) | 100 (≈ 467 µM) | 400 (≈ 1870 µM) | 200 (≈ 933 µM) | 400 (≈ 1870 µM) | 400 (≈ 1870 µM) | 400 (≈ 1870 µM) |  | CC1CCC(C(C)C)C(OCCCO)C1 (stereo not shown) [CA15, 3-menthoxypropan-1-ol] | 
1600 (≈ 9290 µM) | > 1600 | 1600 (≈ 9290 µM) | > 1600 | > 1600 | > 1600 | > 1600 | > 1600 |  | CC1CCC(C(C)(C)O)C(O)C1 (stereo not shown) [CA38, p-menthane-3,8-diol, reference compound] | 

SMILES | MIC [1] [µg/mL] | MIC [2] [µg/mL] | MIC [3] [µg/mL] | MIC [4] [µg/mL] | MIC [5] [µg/mL] | MIC [6] [µg/mL] | MIC [7] [µg/mL] | MIC [8] [µg/mL] | MIC [9] [µg/mL] | growth inhibition activity as multiple of 3-menthoxypropane-1,2-diol (target microbe species)
CC1CCC(C(C)C)C(OCC(C)(O)CO)C1 (stereo not shown) [CA1, 2-methyl-3-(menthoxy)propane-1,2-diol] | 200 (≈ 818 µM) | 400 (≈ 1640 µM) | 100 (≈ 409 µM) | 800 (≈ 3270 µM) | < 50 | 800 (≈ 3270 µM) | 400 (≈ 1640 µM) | 800 (≈ 3270 µM) | 200 (≈ 818 µM) | about 2 times

— patent US20140163099A1, “ANTIMICROBIAL COMPOSITION” (TAKASAGO INTERNATIONAL CORPORATION, priority 2011, published 2014)
